The test system of data set [1] is ANGPTL3 gene. The experiment in a line: Example 12: serum LDL in LDLR knockout mice. Type of data set: in vivo, LDLR KO mice. The following applies: 3.0 mg/kg sc day 1. An excerpt:
To evaluate the effect of RNAi agent administration in a disease model, mice having a genetic mutation for the LDL receptor (referred to herein as LDLR KO mice) were commercially obtained (The Jackson Laboratory). The LDLR KO mice are homozygous for the Ldlr^tm1Her mutation, and have elevated serum cholesterol levels, particularly when placed on a high fat diet. For three weeks prior to the onset of the study, thirty-nine (39) LDLR KO mice were placed on a high fat diet (Teklad Custom Diets TD.88137). An additional eight (8) LDLR KO mice were placed on a normal chow diet over the same three-week period. Pre-dose serum samples were taken on day −15 and day −1 after a four hour fast. At day 1, each mouse was given a single subcutaneous administration of 200 μl/30 g animal body weight containing the respective mg/kg dose of an ANGPTL3 RNAi agent in D5W (dextrose in 5% water), control (D5W) with no RNAi agent, or a control RNAi agent that included a nucleotide sequence designed to target the Hepatitis B Virus (HBV) genome. A second injection of the same formulation was administered to the animals on day 29. The dosing regimen for the study is recited in the following Table 60:
Each mouse remained on its respective diet through the duration of study. The RNAi agent tested (AD05488) included a modified sequence and an N-acetyl-galactosamine-containing targeting ligand conjugated to the 5′ terminal end of the sense strand. (See Tables 3, […] modified sequences and targeting ligand structures). The injections were performed between the skin and muscle (i.e. subcutaneous injections) into the loose skin over the neck and shoulder area. Serum was collected on days 8, 15, 22, 29 (pre-second dose), 36, 43, 50, and 57. LDLR KO mice were fasted for four hours prior to each collection. On day 15, four (4) LDLR KO mice from Groups 1, 2, and 3 (i.e., the groups being administered the high fat “Western” diet) were sacrificed after serum collection, and on day 29, an additional four (4) LDLR KO mice from Groups 1, 2, and 3 were sacrificed after serum collection, for the purpose of performing mRNA assessments.
ANGPTL3 protein levels in serum were measured by ELISA assay (R&D Systems), according to the manufacturer's recommendations. Triglycerides, total cholesterol, high-density lipoprotein (HDL), and low-density lipoprotein (LDL) in serum were measured on a Cobas® Integra 400 (Roche Diagnostics), according to the manufacturer's recommendations.
The ANGPTL3 protein levels, triglyceride levels, total cholesterol levels, HDL levels, and LDL levels for each animal were normalized. For normalization, respective levels of ANGPTL3 protein, TG, total cholesterol, HDL, or LDL for each animal at a time point was divided by the average pre-treatment level of expression in that animal (in this case the average of day −15 and day −1) to determine the ratio of expression “normalized to pre-treatment.”
Expression at a specific time point was then normalized to the D5W control group that was administered the same diet (i.e., either the high fat “Western” diet or the normal chow-fed diet) by dividing the “normalized to pre-treatment” ratio for an individual animal by the mean “normalized to pretreatment” ratio of all mice in the D5W control group on the respective same diet, resulting in expression for each time point normalized to that in the control group.

Data set [2] concerns ANGPTL3 gene. Briefly: Example 13: serum triglycerides in HFCS diet-fed Rhesus monkeys. The following applies: for Avg TG (Triglycerides) Normalized to Pre-Treatment (Fasted): 4.0 mg/kg sc on day 1 and day 29. Type of data set: in vivo. On the procedure:
ANGPTL3 RNAi agent AD05488 was further evaluated in high-fructose corn syrup (HFCS) diet-fed Rhesus monkeys. Rhesus monkeys were placed on an HFCS diet 37 days prior to dosing. These animals were known to develop increased plasma triglycerides greater than 180 mg/dL on the HFCS diet. On day 1 and again on day 29, four (4) Rhesus monkeys were administered a subcutaneous injection containing 4.0 mg/kg of ANGPTL3 RNAi agent AD05488 formulated in saline (n=4). Two additional Rhesus monkeys were administered normal saline control.
Fasted blood samples were drawn for analysis, and serum samples were analyzed on days-8 (predose), 8, 15, 21, 29, and 36. ANGPTL3 expression levels, triglycerides, total cholesterol, high-density lipoprotein (HDL), and low-density lipoprotein (LDL) in serum were measured on a Cobas® Integra 400 (Roche Diagnostics), according to the manufacturer's recommendations.
The ANGPTL3 protein levels, triglyceride levels, total cholesterol levels, HDL levels, and LDL levels for each animal were normalized. For normalization, the level of ANGPTL3 protein, triglyceride, HDL, and total cholesterol, respectively, for each animal at a time point, was divided by the pre-treatment level of expression in that animal (in this case at day −8) to determine the ratio of expression “normalized to pre-treatment.”

In the oligonucleotide strings, read from the 5' end, every base follows the letter of its sugar. An asterisk marks phosphorothioate; unmarked linkages are phosphodiester. Other units and linkages are bracketed, terminal groups are in braces. A string of capitals states the bases alone. {NAG37} = tridentate N-acetyl-galactosamine targeting ligand, structure (NAG37)s; [invAb] = inverted abasic unit; m = 2'-O-methyl; f = 2'-fluoro

“AD05488: RNAi agent duplex: antisense AM07235-AS, sense AM07234-SS (antisense mU*fA*mC*fUmGfAmUfCmAfAmAfUmAfUmGfUmUfGmAfG*mC; sense {NAG37}*[invAb]*mGmCmUmCmAmAmCmAfUfAfUmUmUmGmAmUmCmAmGmUmA*[invAb])”: the “Avg LDL Normalized to Pre-Treatment and Control (Diet Matched)” value came out at 0.547 with ANGPTL3 gene [1] (High Fat Diet, Day 8); 0.476 in the data set on ANGPTL3 gene [1] (High Fat Diet, Day 15); 0.429 in the data set on ANGPTL3 gene [1] (High Fat Diet, Day 22); 0.419 in the data set on ANGPTL3 gene [1] (High Fat Diet, Day 29 (pre-second dose)); 0.558 in the data set with ANGPTL3 gene [1] (Normal Diet, Day 8); 0.606 in the data set on ANGPTL3 gene [1] (Normal Diet, Day 15). Also, the “Avg LDL Normalized to Pre-Treatment and Control (Diet Matched)” value in the data set on ANGPTL3 gene [1] (Normal Diet, Day 22) worked out at 0.662; in the data set with ANGPTL3 gene [1] (Normal Diet, Day 29 (pre-second dose)) it was 0.563. The “reductions in triglyceride levels” value with ANGPTL3 gene [2] (4.0 mg/kg on days 1 and 29, HFCS diet-fed Rhesus monkeys) is listed as “reductions”. Besides, the “Avg TG (Triglycerides) Normalized to Pre-Treatment (Fasted)” value in the data set on ANGPTL3 gene [2] (Day 8) turned out to be 0.351; with ANGPTL3 gene [2] (Day 15) it was 0.244; in the data set on ANGPTL3 gene [2] (Day 21) it was 0.233; with ANGPTL3 gene [2] (Day 29), 0.302; in the data set with ANGPTL3 gene [2] (Day 36), 0.177.

The values above are taken from US12729377B2, “RNAi agents and compositions for inhibiting expression of angiopoietin-like 3 (ANGPTL3), and methods of use” (Arrowhead Pharmaceuticals, Inc., priority 2017, dated 2026).
